According to patent publication US8158621B2, “Methods of treating or preventing autoimmune diseases with 2,4-pyrimidinediamine compounds” (Rigel Pharmaceuticals, Inc., priority 2002, dated 2012):

Test system: not listed separately
Experiment: Mouse Reverse Passive Arthus reaction (RPA reaction)
Type: in vivo, C57BL/6 mice
Conditions: oral, 50 mg/kg, pretreatment time 1.5 hrs
Protocol: In this model system, test compounds are administered at several timepoints prior to administration of Abs and Ags. A solution of rabbit anti-OVA IgG (50 μg in 25 μl/mouse) is injected intradermally, and immediately following is an intravenous injection of chicken egg albumin (20 mg/kg of body weight) in a solution containing 1% Evans blue dye. The degree of edema and hemorrhage is measured in the dorsal skin of C57BL/6 mice using the Evan's Blue dye as an indicator of local tissue damage. Purified polyclonal rabbit IgG is used as a control.
Pretreatment time, in which the test compounds are administered prior to Ab/Ag challenge, depends on the pharmacokinetic (PK) properties of each individual compound. Four hours after induction of Arthus reaction, mice are euthanized, and tissues are harvested for assessment of edema.

Q: Which “% inhibition to vehicle control Edema Size ± SEM” value does the source give for COc1ccc(Nc2nc(Nc3ccc4cc[nH]c4c3)ncc2F)cc1Cl.Cc1ccc(S(=O)(=O)O)cc1 [Compound R927087] here?
A: −10.4 ± 14.4%

Q: Which “% inhibition to vehicle control Edema Size ± SEM” value does the source give for CC1(C)Oc2ccc(Nc3nc(Nc4ccc5cn[nH]c5c4)ncc3F)cc2NC1=O.O=S(=O)(O)c1ccccc1 [Compound R935429] here?
A: −5.1 ± 14.9%

Same assay, conditions: oral, 50 mg/kg, pretreatment time 1.5 hrs + 4 hours

Q: For COc1ccc(Nc2nc(Nc3ccc4cc[nH]c4c3)ncc2F)cc1Cl.Cc1ccc(S(=O)(=O)O)cc1 [Compound R927087], which “Plasma Concentration ± SEM (ng/ml) Exposure = Pretreatment Time + 4 hours” value (shortened to “Plasma Concentration ± SEM”) is on record?
A: 26.9 ± 8.0 ng/mL

Q: With CC1(C)Oc2ccc(Nc3nc(Nc4ccc5cn[nH]c5c4)ncc3F)cc2NC1=O.O=S(=O)(O)c1ccccc1 [Compound R935429] as the compound, how does the “Plasma Concentration ± SEM” value read?
A: 164 ± 89 ng/mL

Same assay, conditions: oral, 100 mg/kg, pretreatment time 0 hrs

Q: With CC1(C)Oc2ccc(Nc3nc(Nc4ccc5cn[nH]c5c4)ncc3F)cc2NC1=O.O=S(=O)(O)c1ccccc1 [Compound R935429] as the compound, how does the “% inhibition to vehicle control Edema Size ± SEM” value read?
A: −2.8 ± 14.8%

Same assay, conditions: oral, 100 mg/kg, pretreatment time 1 hrs + 4 hours

Q: With CC1(C)Oc2ccc(Nc3nc(Nc4ccc5cn[nH]c5c4)ncc3F)cc2NC1=O.O=S(=O)(O)c1ccccc1 [Compound R935429] as the compound, how does the “Plasma Concentration ± SEM” value read?
A: 401 ± 96 ng/mL

Same assay, conditions: oral, 100 mg/kg, pretreatment time 1.5 hrs

Q: Which “% inhibition to vehicle control Edema Size ± SEM” value does the source give for COc1ccc(Nc2nc(Nc3ccc4cc[nH]c4c3)ncc2F)cc1Cl.Cc1ccc(S(=O)(=O)O)cc1 [Compound R927087] here?
A: 28.7 ± 16.6%

Q: For CC1(C)Oc2ccc(Nc3nc(Nc4ccc5cn[nH]c5c4)ncc3F)cc2NC1=O.O=S(=O)(O)c1ccccc1 [Compound R935429], which “% inhibition to vehicle control Edema Size ± SEM” value is on record?
A: 67.1 ± 13.8%

Same assay, conditions: oral, 100 mg/kg, pretreatment time 1.5 hrs + 4 hours

Q: For COc1ccc(Nc2nc(Nc3ccc4cc[nH]c4c3)ncc2F)cc1Cl.Cc1ccc(S(=O)(=O)O)cc1 [Compound R927087], which “Plasma Concentration ± SEM” value is on record?
A: 28.7 ± 10.8 ng/mL

Q: With CC1(C)Oc2ccc(Nc3nc(Nc4ccc5cn[nH]c5c4)ncc3F)cc2NC1=O.O=S(=O)(O)c1ccccc1 [Compound R935429] as the compound, how does the “Plasma Concentration ± SEM” value read?
A: 206 ± 115 ng/mL

Same assay, conditions: oral, 100 mg/kg, pretreatment time 2 hrs

Q: For CC1(C)Oc2ccc(Nc3nc(Nc4ccc5cn[nH]c5c4)ncc3F)cc2NC1=O.O=S(=O)(O)c1ccccc1 [Compound R935429], which “% inhibition to vehicle control Edema Size ± SEM” value is on record?
A: 55.5 ± 7.9%

Same assay, conditions: oral, 100 mg/kg, pretreatment time 4 hrs

Q: Which “% inhibition to vehicle control Edema Size ± SEM” value does the source give for CC1(C)Oc2ccc(Nc3nc(Nc4ccc5cn[nH]c5c4)ncc3F)cc2NC1=O.O=S(=O)(O)c1ccccc1 [Compound R935429] here?
A: 35.0 ± 11.4%

Test system: cultured human mast cells (CHMC)
Experiment: CHMC low cell density IgE activation: tryptase assay
Type: cell-based
Conditions: Low Density; read-out: CHMC anti-IgE Tryptase
Procedure, shortened: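 CHMC resuspended in pre-warmed MT buffer at 1000-1500 cells/well (donor-dependent) and preincubated 1 hr at 37° C, then stimulated with anti-IgE for 30 min at 37° C; unstimulated wells got MT alone. Supernatant tryptase activity read with tryptase substrate after 30 min at room temperature.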

Q: With CNC(=O)C1Cc2cc(Nc3ncc(F)c(Nc4ccc(OC(C)C)cc4)n3)ccc2O1 (centres unmarked) [Compound R926956] as the compound, how does the IC50 read?
A: 211 nM

Same assay, conditions: low cell density; read-out: CHMC anti-IgE Tryptase

Q: With COc1c(Cl)cc(Nc2ncc(F)c(Nc3ccc4c(c3)NC(=O)C(F)(F)O4)n2)cc1Cl [Compound R927061] as the compound, how does the IC50 read?
A: 126 nM

Q: Which IC50 does the source give for COc1cc(Nc2ncc(F)c(Nc3cccc(N)n3)n2)cc(OC)c1 [Compound R927077] here?
A: 284 nM

Q: With COc1ccc(Nc2ncc(F)c(Nc3cccc(N)n3)n2)cc1Cl [Compound R927082] as the compound, how does the IC50 read?
A: 256 nM

Q: With Nc1cccc(Nc2nc(Nc3cccc(O)c3)ncc2F)n1 [Compound R927083] as the compound, how does the IC50 read?
A: 316 nM

Q: Which IC50 does the source give for COc1ccc(Nc2nc(Nc3ccc4cc[nH]c4c3)ncc2F)cc1Cl.Cc1ccc(S(=O)(=O)O)cc1 [Compound R927087] here?
A: 436 nM

Q: For COc1c(C)cc(Nc2ncc(F)c(Nc3ccc4c(c3)-n3ccnc3CO4)n2)cc1Cl [Compound R935418], which IC50 is on record?
A: 228 nM

Q: Which IC50 does the source give for CC1(C)Oc2ccc(Nc3nc(Nc4ccc5cn[nH]c5c4)ncc3F)cc2NC1=O.O=S(=O)(O)c1ccccc1 [Compound R935429] here?
A: 36 nM

Target: T1, Syk kinase (Homo sapiens, UniProt P43405)
T1 construct: purchased Upstate, Lake Placid NY
Experiment: Syk kinase biochemical fluorescence polarization assay
Conditions: isolated Syk kinase, fluorescence polarization, 4 uM ATP

Q: Which IC50 does the source give for CNC(=O)C1Cc2cc(Nc3ncc(F)c(Nc4ccc(OC(C)C)cc4)n3)ccc2O1 (centres unmarked) [Compound R926956] here?
A: 380 nM

Q: Which IC50 does the source give for COc1c(Cl)cc(Nc2ncc(F)c(Nc3ccc4c(c3)NC(=O)C(F)(F)O4)n2)cc1Cl [Compound R927061] here?
A: 158 nM

Q: With COc1cc(Nc2ncc(F)c(Nc3cccc(N)n3)n2)cc(OC)c1 [Compound R927077] as the compound, how does the IC50 read?
A: 602 nM

Q: With COc1ccc(Nc2ncc(F)c(Nc3cccc(N)n3)n2)cc1Cl [Compound R927082] as the compound, how does the IC50 read?
A: 312 nM

Q: For Nc1cccc(Nc2nc(Nc3cccc(O)c3)ncc2F)n1 [Compound R927083], which IC50 is on record?
A: 449 nM

Q: Which IC50 does the source give for COc1c(C)cc(Nc2ncc(F)c(Nc3ccc4c(c3)-n3ccnc3CO4)n2)cc1Cl [Compound R935418] here?
A: 558 nM

Test system: Human Jurkat T-cells (clone N)
Experiment: Jurkat T-cell activation (anti-TCR, CD69 upregulation)
Type: cell-based
Conditions: not given
Procedure, shortened: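 Jurkat cells in RPMI + 5% FBS preincubated with compound 1 h at 37 °C, then stimulated with anti-TCR C305 at 500 ng/ml for 20 h. CD69 surface expression stained with anti-CD69-APC and read by flow cytometry; IC50 versus solvent-only control.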

Q: For CNC(=O)C1Cc2cc(Nc3ncc(F)c(Nc4ccc(OC(C)C)cc4)n3)ccc2O1 (centres unmarked) [Compound R926956], which IC50 is on record?
A: 749 nM

Test system: cultured human mast cells (CHMC)
Experiment: CHMC low cell density ionomycin activation: tryptase assay
Type: cell-based
Conditions: Low Density; read-out: CHMC Ionomycin Tryptase

Q: For CNC(=O)C1Cc2cc(Nc3ncc(F)c(Nc4ccc(OC(C)C)cc4)n3)ccc2O1 (centres unmarked) [Compound R926956], which IC50 is on record?
A: > 10000 nM

Same assay, conditions: low cell density; read-out: CHMC Ionomycin Tryptase

Q: Which IC50 does the source give for COc1c(Cl)cc(Nc2ncc(F)c(Nc3ccc4c(c3)NC(=O)C(F)(F)O4)n2)cc1Cl [Compound R927061] here?
A: 4720 nM

Q: For COc1cc(Nc2ncc(F)c(Nc3cccc(N)n3)n2)cc(OC)c1 [Compound R927077], which IC50 is on record?
A: 8800 nM

Q: Which IC50 does the source give for COc1ccc(Nc2ncc(F)c(Nc3cccc(N)n3)n2)cc1Cl [Compound R927082] here?
A: > 10000 nM

Q: Which IC50 does the source give for Nc1cccc(Nc2nc(Nc3cccc(O)c3)ncc2F)n1 [Compound R927083] here?
A: 19000 nM

Q: For COc1ccc(Nc2nc(Nc3ccc4cc[nH]c4c3)ncc2F)cc1Cl.Cc1ccc(S(=O)(=O)O)cc1 [Compound R927087], which IC50 is on record?
A: > 10000 nM

Q: For COc1c(C)cc(Nc2ncc(F)c(Nc3ccc4c(c3)-n3ccnc3CO4)n2)cc1Cl [Compound R935418], which IC50 is on record?
A: > 10000 nM

Q: With CC1(C)Oc2ccc(Nc3nc(Nc4ccc5cn[nH]c5c4)ncc3F)cc2NC1=O.O=S(=O)(O)c1ccccc1 [Compound R935429] as the compound, how does the IC50 read?
A: > 10000 nM
